Assay results from patent publication US11980596B2 (priority 2017, dated 2024).

Key:
[1] = test system: patients with treatment-resistant depression (TRD); assay: MADRS total score, response and remission (Example 7, phase 2 dose-response study); type: in vivo, human; settings: for MADRS: treatment difference relative to placebo: day 15, completers, same treatment 2 weeks; for MADRS: LS mean difference vs placebo, range over dose groups: 28, 56, 84 mg
Description: At the beginning of double-blind Period 1, eligible participants were randomized (3:1:1:1) to intranasal placebo or esketamine 28, 56, or 84 mg, twice weekly (days 1 and 4) based on the first of two computer-generated randomization schedules (Period 1 and Period 2). Randomization was balanced by using randomly permuted blocks and stratified by study center. At the end of Period 1, those randomized to placebo who had moderate-to-severe symptoms (assessed by Quick Inventory of Depressive Symptomatology-Self Report (Trivedi 2016 and Rush, “The 16-item Quick Inventory of Depressive Symptomatology (QIDS) Clinician Rating (QIDS-C) and Self-Report (QIDS-SR): A psychometric evaluation in patients with chronic major depression”, Biol. Psychiatry, 2003, 54(5):573-583) [QIDS-SR16] total score: moderate, 11-16; severe, >16) were re-randomized (1:1:1:1) to intranasal esketamine 28, 56, or 84 mg or placebo, twice weekly (days 8 and 11), while those having mild or no symptoms continued on placebo. To maintain the blind, all participants completed an identical process prior to entry into Period 2, whether or not they were re-randomized. Regardless of response in the double-blind phase, all participants were eligible to enter the optional open-label phase. Esketamine (56 mg) was administered on the first day of the open-label phase (study day 15); subsequent doses could be adjusted (range: 28 to 84 mg) based on investigator's clinical judgment, with administration twice weekly for first 2 weeks, weekly for next 3 weeks, then every 2 weeks thereafter.
Efficacy was assessed with the Montgomery-Asberg Depression Rating Scale (MADRS; Montgomery, “A new depression scale designed to be sensitive to change”, Br. J. Psychiatry, 1979, 134:382-389; Williams, “Development and reliability of a structured interview guide for the Montgomery Asberg Depression Rating Scale (SIGMA)”, Br. J. Psychiatry, 2008, 192(1):52-58) on days 1 (pre-dose and 2 hour post-dose), 2, 8 (pre-dose), 9, and 15, using the structured interview guide (SIGMA). See, Williams 2008.
The primary efficacy endpoint—change from baseline (pre-dose, day 1 in each period) to endpoint (day 8 in each period) in MADRS total score—was analyzed using the analysis of covariance (ANCOVA) model. For Period 1, the model included treatment and country as factors, and baseline MADRS total score as covariate. For Period 2, the model included treatment and country as factors, Period 2 baseline QIDS-SR16 score (moderate or severe), and Period 2 baseline MADRS total score as a continuous covariate.
Given the consistency between Periods 1 and 2 results (Chi 2016), esketamine dose groups were compared to placebo using a combined test on the weighted test statistics for each period in the double-blind treatment phase. A dose-response analysis on primary efficacy endpoint was performed using data combined from both periods. The Multiple Comparison Procedure—Modelling (MCP-Mod) methodology was performed (Williams 2008; Bretz, “Combining multiple comparisons and modeling techniques in dose-response studies”, Biometrics, 2005, 61:738-748).

[2] = Pharmacokinetics of intranasal esketamine in healthy subjects (Example 9)
Description: Blood samples (4 mL each) for determination of esketamine and noresketamine plasma concentrations were collected into the appropriate collection tube (e.g., Vacutainer®) at timepoints 0.00, 0.12, 0.20, 0.37, 0.53, 0.67, 0.83, 1.00, 1.25, 1.50, 2.00, 3.00, 4.00, 6.00, 9.00, 12.00, 18.00, and 24.00 h. The total amount of blood to be drawn for clinical laboratory tests and PK evaluations is approximately 327 mL.
Plasma samples were analyzed for esketamine and noresketamine concentrations using the validated, specific and sensitive liquid chromatography coupled to tandem mass spectrometry (LC-MS/MS) achiral method of Example 8.
Serial PK blood samples (4 mL each) were collected for a 24-hour period from each subject (Periods 1, 2, and 3). […] Statistical Methods 1.6.4.1. Sample Size
The following key parameters of esketamine and noresketamine in plasma were calculated using noncompartmental methods and actual sampling times: Cmax, tmax, AUClast, AUC∞, t1/2,λ, and λz.

[3] = Pharmacokinetics of esketamine nasal spray, 14 Phase 1 studies (Example 10); settings: young adult subjects
Description: The data herein was assembled from 14 Phase 1 studies; each Phase 1 study was performed similarly to the study outlined in Example 9 in which the PK of esketamine was assessed.

Protein binding = type: in vitro ADME
Source text: Protein binding of esketamine was approximately 43% to 45%.

adult subjects with TRD [4] = settings: post dose
Description: Blood pressure and pulse/heart rate measurements were assessed supine with a completely automated device. Manual techniques were used only if an automated device is not available. Blood pressure and pulse/heart rate measurements were preceded by at least 5 minutes of rest in a quiet setting without distractions (e.g., television, cell phones).
Descriptive statistics of temperature, pulse/heart rate, respiratory rate, pulse oximetry, and blood pressure (systolic and diastolic) (supine) values and changes from baseline were summarized at each scheduled time point. The percentage of subjects with values beyond clinically important limits were summarized.

adult subjects with TRD [5] = settings: post dose; remark: listed apart in the source
Description: The CADSS is an instrument for the measurement of present-state dissociative symptoms, and was administered to assess treatment-emergent dissociative symptoms. The CADSS consists of 23 subjective items, divided into 3 components: Depersonalization (Items 3 to 7, 20, and 23), derealization (Items 1, 2, 8 to 13, 16 to 19, and 21) and amnesia (Items 14, 15, and 22). Participant's responses were coded on a 5-point scale (0=not at all through to 4=extremely).
The Clinician Administered Dissociative States Scale (CADSS) was measured prior to the start of each dose, at 40 minutes, and 1.5 hours postdose.

[6] = OL endpoint - day 74, Placebo/Esketamine/OL Esketamine
[7] = Period 1, study period endpoint, esketamine 28 mg
[8] = Period 2, 2 hours, esketamine 84 mg
[9] = Period 2, 24 hours, esketamine 84 mg
[10] = Period 2, study period endpoint, esketamine 84 mg
[11] = Week 8 (Follow-up), Placebo/Esketamine/OL Esketamine

In the case of CN[C@]1(c2ccccc2Cl)CCCCC1=O [esketamine, (S)-2-(2-chlorophenyl)-2-(methylamino)cyclohexanone], the “MADRS: treatment difference relative to placebo” value ([1]; 28 mg) is reported as −6.0, the “MADRS: treatment difference relative to placebo” value ([1]; 56 mg) is reported as −8.3 and the “Proportion of responders (MADRS)” value ([1]; 84 mg, Period 2 endpoint) is reported as 50.0%. The “Remitted (MADRS)” value ([1]; 84 mg, after 2 weeks of treatment) was 40.0%, the “MADRS response (≥50% improvement), %” value [1, 6] was 50.0% and the “Remission (MADRS ≤10): No, %” value [1, 6] was 60.0%. For the same compound, the “Remission (MADRS ≤10): Yes, %” value [1, 6] was 40.0%, the “MADRS response (≥50% improvement), %” value ([1]; OL endpoint - day 74, Placebo/Placebo/OL Esketamine) was 100% and the “MADRS Remitters, %” value ([1]; Period 1, 2 hours, esketamine 84 mg) was “(25.0) %”. The “MADRS Remitters, %” value ([1]; Period 1, 24 hours, esketamine 84 mg) was “(25.0) %”, the “MADRS Remitters, %” value [1, 7] was “(9.1) %” and the “MADRS Responders, %” value [1, 7] was “(9.1) %”. For the same compound, the “MADRS Remitters, %” value ([1]; Period 1, study period endpoint, esketamine 56 mg) was “(9.1) %”, the “MADRS Remitters, %” value ([1]; Period 1, study period endpoint, esketamine 84 mg) was “(25.0) %” and the “MADRS: LS mean difference vs placebo, range over dose groups” value ([1]; Period 1) was −5.0 to −10.5. For the same compound, the “MADRS Remitters, %” value [1, 8] was “(40.0) %”, the “MADRS Responders, %” value [1, 8] was “(40.0) %” and the “MADRS Remitters, %” value [1, 9] was “(20.0) %”. The “MADRS Responders, %” value [1, 9] was “(40.0) %”, the “MADRS Remitters, %” value [1, 10] was “(20.0) %” and the “MADRS Responders, %” value [1, 10] was “(20.0) %”. For the same compound, the “MADRS: LS mean difference vs placebo, range over dose groups” value ([1]; Period 2) was −3.1 to −6.9, the “MADRS response (≥50% improvement), %” value [1, 11] was 25.0% and the “Remission (MADRS ≤10): No, %” value [1, 11] was 75.0%. For the same compound, the “Remission (MADRS ≤10): Yes, %” value [1, 11] was 25.0%, the “Dose proportionality of mean plasma Cmax and AUC” value ([2]; 28-mg, 56-mg and 84-mg intranasal regimens) was “less than dose-proportional” and the “AUC (AUClast and AUC∞) variability” value ([2]; esketamine) was 25.0% to 30.4. The “Cmax variability (percent coefficient of variation)” value ([2]; esketamine, across the 3 treatment groups) was 35.7% to 36.7, the “Tmax, range of median values” ([3]; single dose esketamine nasal spray 28 mg, n = 64) was 19.8 to 40.2 min and the “Tmax, range of median values” ([3]; single dose esketamine nasal spray 56 mg, n = 86) was 30 to 46.2 min. For the same compound, the “Tmax, range of median values” ([3]; single dose esketamine nasal spray 84 mg, n = 167) was 31.8 to 49.8 min, the fraction unbound (Protein binding) was 0.55 to 0.57 and the “Blood pressure returned to normal range at” value (adult subjects with TRD [4]) was 90 min. The “Time of peak of transient blood pressure increases” value (adult subjects with TRD [4]) was “approximately 40 minutes”, the “Dissociative and perceptual change symptoms (CADSS) resolved by” value (adult subjects with TRD [5]) was ≤ 1.5 h and the “S-Ketamine QC sample long-term storage stability” value (at −20° C.) was 707 days at −20 °C. For the same compound, the “S-Ketamine QC sample freeze/thaw stability” value (freeze (−20° C.)/thaw (room temperature)) was 3 freeze (−20° C.)/thaw (room temperature) cycles and the “S-Ketamine QC sample bench-top stability” value (room temperature) was 18 hours at room temperature.
